Here are results for three compounds from ChEMBL document CHEMBL1159006, “Anti-HIV and cytotoxic alkaloids from Buchenavia capitata” (J Nat Prod, 1992).

For test [1], the system named is CEM-SS. Description: Cytotoxicity against human CEM-SS cells. It is filed as cell-based.
Test [2] deals with Human immunodeficiency virus 1. The test can be described thus: Antiviral activity against HIV1 in human CEM-SS cells after 6 days. It is filed as functional, organism-based.
Test [3] deals with Human immunodeficiency virus 1. The test can be described thus: Antiviral activity against HIV1 RF in human MT2 cells. It is filed as functional, organism-based.
Test [4] relates to Human immunodeficiency virus 2. Description: Antiviral activity against HIV2 NIH-DZ assessed as cytoprotection. It is filed as functional, organism-based.
Test [5] has as its system Human immunodeficiency virus 1. Description: Antiviral activity against HIV1 in human C8166 cells. It is filed as functional, organism-based.
Test [6] concerns Human immunodeficiency virus 1. Description: Antiviral activity against HIV1 3B in human H9 cells. It is filed as functional, organism-based.
Test [7] has as its target Human immunodeficiency virus type 1 reverse transcriptase (Human immunodeficiency virus 1) (UniProt Q72547). Description: Inhibition of HIV1 reverse transcriptase.
Test [8] concerns Human immunodeficiency virus 2. The test can be described thus: Inhibition of HIV2 reverse transcriptase.
The target in test [9] is Protease (Human immunodeficiency virus 1) (UniProt Q9YQ12). The test can be described thus: Inhibition of HIV1 protease expressed in Escherichia coli by immunoblotting.
Chain of Protease (Human immunodeficiency virus 1) (Q9YQ12 as listed by the source): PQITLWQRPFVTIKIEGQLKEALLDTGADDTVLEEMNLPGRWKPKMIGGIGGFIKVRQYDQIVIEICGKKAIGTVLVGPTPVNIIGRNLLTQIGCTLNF
Test [10] is described as follows: Cytotoxicity against human melanoma cells after 48 hrs by SRB assay. It is filed as functional. To be noted: Melanoma cell, read-out: LC50 (the source's name).
In test [11] the test system is Escherichia coli. Description: DNA damaging activity against Escherichia coli BR513 containing lysogenic lambda-lacZ fusion phage at 1 mg/ml by biochemical prophage induction assay. It is filed as functional, organism-based.
In test [12] the test system is Escherichia coli. Description: DNA damaging activity against Escherichia coli K12 at 1 mg/ml by SOS chromotest agar spot test. It is filed as functional, organism-based.

Calls of active or inactive are those of the source. No cut-off for these calls is given here.

In turn, `O=c1cc(-c2ccccc2)oc2c(C3CCCCN3)c(O)cc(O)c12` (stereo not given) registered a half-inhibitory concentration (IC50) in test [1] of 142 µM. The compound further showed an EC50 in test [2] (Human immunodeficiency virus 1, CEM-SS, 144 h) of 142 µM.
For the compound `COc1cc(O)c(C2CCCCN2C)c2oc(-c3ccccc3)cc(=O)c12` (stereo not given) [BUCHENAVIANINE], in test [1], the half-inhibitory concentration (IC50) was 5.7 µM. In test [2], the Activity is given as less than 50%.
For the compound `CN1CCCCC1c1c(O)cc(O)c2c(=O)cc(-c3ccccc3)oc12` (stereo not given), the IC50 in [1] was 0.66 µM. Further, the outcome in test [3], in [4], in [5], in [6], in test [7] and in [8] was inactive. The result in [9], in [11] and in [12] was inactive. The CC50 in [10] turned out to be 0.1 µM.
